# Measurements: patent US7696246B2 (Ligand Pharmaceuticals Incorporated, priority 1999, dated 2010)
# What was measured:
# human AR [1] = target: T1, human AR (Homo sapiens, UniProt P10275); assay: Co-transfection assay, AR antagonist activity (CV-1 cells, in presence of DHT); type: cell-based; conditions: for AR Antagonist CV-1 Cells Efficacy (%): percent maximal inhibition, DHT at its EC50; for IC50: read-out: AR Antagonist CV-1 Cells Potency
# T1 sequence (P10275 1-920): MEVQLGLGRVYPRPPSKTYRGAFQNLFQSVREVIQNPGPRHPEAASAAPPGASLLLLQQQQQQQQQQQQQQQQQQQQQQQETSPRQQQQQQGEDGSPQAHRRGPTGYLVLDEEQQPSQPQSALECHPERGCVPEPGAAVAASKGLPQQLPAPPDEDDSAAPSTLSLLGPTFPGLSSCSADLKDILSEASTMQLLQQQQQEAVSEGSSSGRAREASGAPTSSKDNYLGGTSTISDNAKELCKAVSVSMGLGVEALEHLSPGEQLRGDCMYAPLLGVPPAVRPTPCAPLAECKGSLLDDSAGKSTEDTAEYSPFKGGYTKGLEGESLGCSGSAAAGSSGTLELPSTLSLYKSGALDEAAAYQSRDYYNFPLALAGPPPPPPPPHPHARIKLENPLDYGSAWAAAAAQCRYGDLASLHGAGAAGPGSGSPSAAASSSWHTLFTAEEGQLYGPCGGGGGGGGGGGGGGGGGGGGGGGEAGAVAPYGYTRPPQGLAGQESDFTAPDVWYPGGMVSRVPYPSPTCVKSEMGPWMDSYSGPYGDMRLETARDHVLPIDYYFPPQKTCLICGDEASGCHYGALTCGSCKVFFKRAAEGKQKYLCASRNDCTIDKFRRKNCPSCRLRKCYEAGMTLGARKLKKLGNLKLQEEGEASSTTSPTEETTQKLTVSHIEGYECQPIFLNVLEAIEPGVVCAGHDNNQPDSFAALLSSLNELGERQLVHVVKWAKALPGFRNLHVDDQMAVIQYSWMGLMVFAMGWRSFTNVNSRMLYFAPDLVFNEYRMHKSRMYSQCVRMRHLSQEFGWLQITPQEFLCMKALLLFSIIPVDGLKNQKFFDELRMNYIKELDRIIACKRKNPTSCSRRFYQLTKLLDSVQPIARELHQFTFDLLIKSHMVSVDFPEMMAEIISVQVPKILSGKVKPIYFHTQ
# human AR [2] = target: T1, human AR; assay: AR whole cell competitive binding assay (COS-1 cells, 3H-DHT); conditions: 1 nM 3H-DHT, Cheng-Prusoff
# Procedure: AR Binding: For the whole cell binding assay, COS-1 cells in 96-well microtiter plates containing DMEM-10% FBS were transfected as described above with the following plasmid DNA: pRShAR (2 ng/well), pRS-β-Gal (50 ng/well) and pGEM (48 ngcwell). Six hours after transfection, media was removed, the cells were washed with PBS and fresh media was added. The next day, the media was changed to DMEM-serum free to remove any endogenous ligand that might be complexed with the receptor in the cells.
# Three replicates were used for each sample. […] The remaining media was removed, the cells were washed three times with PBS to remove unbound ligand, and cells were lysed with a Triton X-100-based buffer.
# For the saturation analyses, the difference between the total binding and the nonspecific binding, normalized by the β-Gal rate, was defined as specific binding. […] The Ki values were determined by application of the Cheng-Prusoff equation to the IC50 values, where:
# After correcting for non-specific binding, IC50 values were determined. […] The IC50 value was determined graphically from a log-logit plot of the data. The Ki values were determined by application of the Cheng-Prusoff equivuation to the IC50 values, the labeled ligand concentration and the Kd of the labeled ligand.
# human AR [3] = target: T1, human AR; assay: Co-transfection assay, AR agonist activity (CV-1 cells, MTV-LUC reporter); type: cell-based; conditions: CV-1 cells; for EC50: agonist potency EC50; for AR Agonist CV-1 Cells Efficacy (%): percent maximal response relative to reference agonist DHT
SMILES,AR Antagonist CV-1 Cells Efficacy (%) (human AR [1]),IC50 (human AR [1]),Ki (human AR [2]),EC50 (human AR [3]),AR Agonist CV-1 Cells Efficacy (%) (human AR [3])
"O=c1cc(C(F)(F)F)c2cc(N3CCCCCC3)ccc2[nH]1 [Compound 330, 6-(1-Azepano)-4-trifluoromethyl-2(1H)-quinolinone]","na (na = not active (i.e. efficacy of <20 and potency of >10,000))",> 10000 nM,55 nM,3.9 nM,81%
"C[C@@H]1C=C[C@H](C)N1c1ccc2[nH]c(=O)cc(C(F)(F)F)c2c1 [Compound 332, 6-(2,5-cis-Dimethyl-1-pyrrolino)-4-trifluoromethyl-2(1H)-quinolinone]","na (na = not active (i.e. efficacy of <20 and potency of >10,000))",> 10000 nM,19 nM,14 nM,121%
"O=c1cc(C(F)(F)F)c2cc(N3CCc4ccccc43)ccc2[nH]1 [Compound 347, 6-(1-Indolino)-4-trifluoromethyl-2(1H)-quinolinone]",89%,59 nM,970 nM,> 10000 nM,–
"O=c1cc(C(F)(F)F)c2cc(N3CCCc4ccccc43)ccc2[nH]1 [Compound 348, 6-(1-Tetrahydroquinolino)-4-trifluoromethyl-2(1H)-quinolinone]",81%,24 nM,62 nM,> 10000 nM,–
"CCC[C@@H]1CC[C@H](CCC)N1c1ccc2[nH]c(=O)cc(C(F)(F)F)c2c1 [Compound 366, 6-(2,5-cis-Dipropyl-1-pyrrolidino)-4-trifluoromethyl-2(1H)-quinolinone]",85%,31 nM,> 1000 nM,> 10000 nM,–
"CCCN(CC(F)(F)F)c1ccc2[nH]c(=O)cc(C)c2c1 [Compound 374, 6-(N-Propyl-N-2,2,2-trifluoroethyl)amino-4-methyl-2(1H)-quinolinone]","na (na = not active (i.e. efficacy of <20 and potency of >10,000))",> 10000 nM,6.2 nM,2.2 nM,77%
"COC[C@H]1CCCN1c1ccc2[nH]c(=O)cc(C(F)(F)F)c2c1 [Compound 423, (R)-6-(2-Methoxymethyl-1-pyrrolidino)-4-trifluoromethyl-2(1H)-quinolinone]","na (na = not active (i.e. efficacy of <20 and potency of >10,000))",> 10000 nM,22 nM,86 nM,57%
"O=c1cc(C(F)(F)F)c2cc(N3CCCC[C@H]3CCl)ccc2[nH]1 [Compound 432, (+)S-6-(2-Chloromethyl-1-piperidino)-4-trifluoromethyl-2(1H)-quinolinone]","na (na = not active (i.e. efficacy of <20 and potency of >10,000))",> 10000 nM,32 nM,8 nM,96%
"O=c1cc(C(F)(F)F)c2cc(N3CCCC[C@@H]3CCl)ccc2[nH]1 [Compound 433, (−)R-6-(2-Chloromethyl-1-piperidino)-4-trifluoromethyl-2(1H)-quinolinone]","na (na = not active (i.e. efficacy of <20 and potency of >10,000))",> 10000 nM,1.5 nM,6.4 nM,120%
"O=c1cc(C(F)(F)F)c2cc(N3CCCC[C@@H]3[C@@H](O)C(F)(F)F)ccc2[nH]1 [Compound 457, (+)-6-(2R-(1R-Hydroxy-2,2,2-trifluoroethyl)-1-piperidino)-4-trifluoromethyl-2(1H)-quinolinone]","na (na = not active (i.e. efficacy of <20 and potency of >10,000))",> 10000 nM,3.2 nM,3 nM,85%
"O=c1cc(C(F)(F)F)c2cc(N(CC(F)(F)F)CC(F)(F)F)ccc2o1 [Compound 474, 6-(bis-N,N-2,2,2-Trifluoroethyl)amino-4-trifluoromethylcoumarin]","na (na = not active (i.e. efficacy of <20 and potency of >10,000))",> 10000 nM,1.8 nM,0.6 nM,73%
"CC1(C)OC(=O)Nc2ccc(N(CC(F)(F)F)CC(F)(F)F)cc21 [Compound 490, 1,4-Dihydro-4,4-dimethyl-6-(bis-N,N-2,2,2-trifluoroethyl)amino-1,3-benzo [d-]oxazin-2-one]","na (na = not active (i.e. efficacy of <20 and potency of >10,000))",> 10000 nM,12 nM,12 nM,113%
"CC1(C)CC(=O)Nc2ccc(N(CC(F)(F)F)CC(F)(F)F)cc21 [Compound 501, 3,4-Dihydro-4,4-dimethyl-6-(bis-N,N-2,2,2-trifluoroethyl)amino-2(1H)-quino-linone]","na (na = not active (i.e. efficacy of <20 and potency of >10,000))",> 10000 nM,16 nM,5.8 nM,110%
"Cn1c(=O)cc(C(F)(F)F)c2ccc(NCC(F)(F)F)cc21 [Compound 532, 1-Methyl-7-(2,2,2-trifluoromethyl)amino-4-trifluoromethyl-2(1H)-quinolinone]",85%,73 nM,159 nM,> 10000 nM,–
"CC(C)Nc1ccc2c(C(F)(F)F)c(F)c(=O)[nH]c2c1 [Compound 535, 3-Fluoro-7-isopropylamino-4-trifluoromethyl-2(1H)-quinolinone]",76%,60 nM,> 1000 nM,> 10000 nM,–
"O=c1[nH]c2cc(NC3CCCC3)ccc2c(C(F)(F)F)c1F [Compound 536, 3-Fluoro-7-cyclopentylamino-4-trifluoromethyl-2(1H)-quinolinone]",76%,28 nM,188 nM,> 10000 nM,–
"Nc1cc2[nH]c(=O)cc(C(F)(F)F)c2cc1OCC(F)(F)F [Compound 571, 7-Amino-6-(2,2,2-trifluoroethoxy)-4-trifluoromethyl-2(1H)-quinolinone]",69%,14 nM,71 nM,> 10000 nM,–
"Nc1cc2[nH]c(=O)cc(C(F)(F)F)c2cc1C1CCCCC1 [Compound 582, 7-Amino-6-cyclohexyl-4-trifluoromethyl-2(1H)-quinolinone]",92%,26 nM,43 nM,> 10000 nM,–
"CCCOc1c(NCC(F)(F)F)ccc2[nH]c(=O)cc(C(F)(F)F)c12 [Compound 602, 6-(N-2,2,2-Trifluoroethyl)amino-5-propyloxy-4-trifluoromethyl-2(1H)-quinolinone]",85%,27 nM,45 nM,> 10000 nM,–
"CC(C)c1ccc2[nH]c(=O)cc(C(F)(F)F)c2c1 [Compound 615, 6-Isopropyl-4-trifluoromethyl-2(1H)-quinolinone]",82%,48 nM,56 nM,2800 nM,23%
"O=c1cc(C(F)(F)F)c2cc(C3CCCCC3)ccc2[nH]1 [Compound 616, 6-Cyclohexyl-4-trifluoromethyl-2(1H)-quinolinone]",92%,17 nM,15 nM,> 10000 nM,–
"O=c1cc(C(F)(F)F)c2cc(C3=CCCCC3)ccc2[nH]1 [Compound 630, 6-Cyclohexenyl-4-trifluoromethyl-2(1H)-quinolinone]",67%,13 nM,109 nM,221 nM,30%
"O=c1cc(C(F)(F)F)c2cc(C3=CCCC3)ccc2[nH]1 [Compound 632, 6-Cyclopentenyl-4-trifluoromethyl-2(1H)-quinolinone]",75%,36 nM,112 nM,> 10000 nM,–
"O=c1cc(C(F)(F)F)c2cc(C3=CCCCCC3)ccc2[nH]1 [Compound 633, 6-Cycloheptenyl-4-trifluoromethyl-2(1H)-quinolinone]",51%,7.5 nM,97 nM,38 nM,33%
